From ChEMBL document CHEMBL1149511, “Tri-substituted triazoles as potent non-nucleoside inhibitors of the HIV-1 reverse transcriptase” (Bioorg Med Chem Lett, 2006)

Tests used:
Format in all cases: functional, cell-based
HeLa [1] = test: Antiviral activity against wild type HIV1 in HeLa-JC53 cells; details: Homo sapiens
HeLa [2] = test: Antiviral activity against HIV1 Y188L mutant in HeLa-JC53 cells
HeLa [3] = test: Antiviral activity against HIV1 K103N-Y181C mutant in HeLa-JC53 cells

Row | Structure (SMILES) | EC50 (HeLa [1]) [nM] | EC50 (HeLa [2]) [nM] | EC50 (HeLa [3]) [nM]
1 | Cc1ccc2c(-n3c(C)nnc3SCC(=O)Nc3ccccc3Br)ccc(C)c2c1 | 0.5 | 150 | 
2 | COc1ccc(-n2c(C)nnc2SCC(=O)Nc2ccc(S(N)(=O)=O)cc2Cl)c2ccccc12 | 0.7 | 110 | 
3 | Cc1ccc(NC(=O)CSc2nnc(C)n2-c2cc(C)c(C)c3ccccc23)c(Cl)c1 | 1 | 160 | 
4 | Cc1ccc2cc(Cl)cc(-n3c(C)nnc3SCC(=O)Nc3ccc(S(N)(=O)=O)cc3Cl)c2n1 | 2 | 100 | 
5 | Cc1nnc(SCC(=O)Nc2ccccc2Br)n1-c1cccc2cccnc12 | 7 | 4200 | 
6 | Cc1cccc(-n2c(C)nnc2SCC(=O)Nc2ccc(C)cc2Cl)c1 | 110 |  | 
7 | Cc1ccc(-n2c(C)nnc2SCC(=O)Nc2ccccc2C(F)(F)F)cc1 | 7 |  | > 10000
8 | Cc1ccc(-n2c(C)nnc2SCC(=O)Nc2ccc(Cl)cc2Cl)cc1 | 5 |  | 
9 | CCc1ccc(-n2c(C)nnc2SCC(=O)Nc2ccc(C)cc2Cl)cc1 | 0.2 |  | 60
10 | Cc1ccc2c(C)cc(C)c(-n3c(C)nnc3SCC(=O)Nc3ccc(S(N)(=O)=O)cc3Cl)c2n1 | 0.7 | 11 | 
11 | Cc1ccc(NC(=O)CSc2nnc(C)n2-c2c(C)cc(C)c3ccccc23)c(Cl)c1 | 1 | 90 | 
12 | Cc1nnc(SCC(=O)Nc2ccc(S(N)(=O)=O)cc2Cl)n1-c1ccc(N(C)C)c2ccccc12 | 0.5 | 88 | 
13 | COc1cc(-n2c(C)nnc2SCC(=O)Nc2ccc(S(N)(=O)=O)cc2Cl)c2ncccc2c1 | 0.8 | 370 | 
14 | Cc1nnc(SCC(=O)Nc2ccc(S(N)(=O)=O)cc2Cl)n1-c1cccc2ccccc12 | 0.5 | 190 | 
15 | Cc1ccc(-n2c(C)nnc2SCC(=O)Nc2cccc(Cl)c2)cc1 | > 10000 |  | > 10000
16 | COCc1nnc(SCC(=O)Nc2ccc(C)cc2Br)n1-c1ccc(C)cc1 |  |  | > 10000
17 | NS(=O)(=O)c1ccc(NC(=O)CSc2nnc(C(F)(F)F)n2-c2cccc3cccnc23)c(Cl)c1 | 2 | 180 | 
18 | NS(=O)(=O)c1ccc(NC(=O)CSc2nnc(C(F)(F)F)n2-c2cccc3ccccc23)c(Cl)c1 | 0.5 | 49 | 
19 | O=C1Nc2ccc(Cl)cc2[C@@](C#CC2CC2)(C(F)(F)F)O1 [EFAVIRENZ] | 0.4 | 73 | 11
20 | Cc1ccc(-n2c(C)nnc2SCC(=O)Nc2ccccc2-c2ccccc2)cc1 | > 10000 |  | > 10000
21 | Cc1ccc2cccc(-n3c(SCC(=O)Nc4ccc(S(N)(=O)=O)cc4Cl)nnc3C(F)(F)F)c2n1 | 0.6 | 22 | 

Row | Structure (SMILES) | EC50 (HeLa [1]) [nM] | EC50 (HeLa [2]) [nM] | EC50 (HeLa [3]) [nM]
22 | Cc1ccc(-n2c(O)nnc2SCC(=O)Nc2ccc(C)cc2Br)cc1 |  |  | > 10000
23 | COc1ccc(-n2c(SCC(=O)Nc3ccc(S(N)(=O)=O)cc3Cl)nnc2C(F)(F)F)c2ccccc12 | 0.4 | 14 | 
24 | Cc1ccc(-n2c(C)nnc2SCC(=O)Nc2ccccc2Br)cc1 | 0.4 |  | 76
25 | Cc1ccc(NC(=O)CSc2nnc(C)n2-c2cccc3cccnc23)c(Cl)c1 | 8 | 5700 | 
26 | Cc1ccc(-n2cnnc2SCC(=O)Nc2ccc(C)cc2Br)cc1 | 70 |  | > 10000
27 | Cc1nnc(SCC(=O)Nc2ccc(S(N)(=O)=O)cc2Cl)n1-c1ccc(Cl)c2ccccc12 | 1 | 68 | 
28 | COc1ccc(-n2c(C)nnc2SCC(=O)Nc2ccccc2Br)c2ccccc12 | 0.7 | 460 | 93
29 | Cc1ccc2ccccc2c1-n1c(C)nnc1SCC(=O)Nc1ccccc1Br | 1 | 210 | 65
30 | Cc1ccc2cccc(C)c2c1-n1c(C)nnc1SCC(=O)Nc1ccccc1Br | 1 | 480 | 
31 | Cc1ccc(-n2c(C)nnc2SCC(=O)Nc2ccc(OC(F)(F)F)cc2Br)cc1 | 58 |  | > 10000
32 | Cc1ccc(-n2c(SCC(=O)Nc3ccc(S(N)(=O)=O)cc3Cl)nnc2C(F)(F)F)c2ccccc12 | 0.4 | 25 | 
33 | Cc1ccc(NC(=O)CSc2nnc(C)n2-c2cccc(Cl)c2)c(Cl)c1 | 260 |  | 
34 | Cc1nnc(SCC(=O)Nc2ccccc2Br)n1-c1ccc(N(C)C)c2ccccc12 | 0.4 | 240 | 
35 | Cc1ccc2c(C)ccc(-n3c(C)nnc3SCC(=O)Nc3ccc(S(N)(=O)=O)cc3Cl)c2n1 | 0.6 | 15 | 
36 | Cc1nnc(SCC(=O)Nc2ccccc2Br)n1-c1cccc2ccccc12 | 2 | 720 | 
37 | Cc1ccc(NC(=O)CSc2nnc(C)n2-c2c(C)ccc3ccccc23)c(Cl)c1 | 1 | 200 | 60
38 | COc1ccc(-n2c(C)nnc2SCC(=O)Nc2ccc(C)cc2Cl)c2ccccc12 | 1 | 240 | 
39 | Cc1ccc(-n2c(C)nnc2SCC(=O)Nc2cc(Cl)ccc2Cl)cc1 | 100 |  | 
40 | Cc1ccc2cccc(-n3c(C)nnc3SCC(=O)Nc3ccc(S(N)(=O)=O)cc3Cl)c2n1 | 1 | 390 | 
41 | Cc1ccc(NC(=O)CSc2nnc(C)n2-c2cccc3ccccc23)c(Cl)c1 | 4 | 590 | 54
42 | Cc1ccc(NC(=O)CSc2nnc(C)n2-c2cccc(C(F)(F)F)c2)c(Cl)c1 | > 600 |  | 

Row | Structure (SMILES) | EC50 (HeLa [1]) [nM] | EC50 (HeLa [2]) [nM] | EC50 (HeLa [3]) [nM]
43 | Cc1ccc(NC(=O)CSc2nnc(C)n2-c2ccc(F)cc2)c(Cl)c1 | 2300 |  | > 10000
44 | Cc1ccc(NC(=O)CSc2nnc(C)n2-c2ccccc2Cl)c(Cl)c1 | 8 |  | 100
45 | CCc1ccc(-n2c(C)nnc2SCC(=O)Nc2ccc(C)cc2Cl)c2ccccc12 | 1 | 110 | 32
46 | Cc1ccc(-n2c(C)nnc2SCC(=O)Nc2cccc(Cl)c2Cl)cc1 | 0.1 |  | 110
47 | NS(=O)(=O)c1ccc(NC(=O)CSc2nnc(C(F)(F)F)n2-c2ccc(Cl)c3ccccc23)c(Cl)c1 | 4 | 41 | 
48 | Cc1ccc2c(C)ccc(-n3c(C)nnc3SCC(=O)Nc3ccccc3Br)c2c1 | 0.3 | 12 | 
49 | Cc1ccc(-n2c(C)nnc2SCC(=O)Nc2cccc(C)c2C)cc1 | 60 |  | > 10000
50 | Cc1ccc(-n2c(C)nnc2SCC(=O)Nc2ccc(C(C)C)cc2Br)cc1 | 140 |  | > 10000
51 | Cc1ccc(-n2c(C)nnc2SCC(=O)Nc2ccc(Oc3ccccc3)cc2)cc1 | 1100 |  | > 10000
52 | Cc1ccc(-n2c(C)nnc2SCC(=O)Nc2ccc(C)cc2Cl)cc1 | 0.9 |  | 170
53 | Cc1ccc(-n2c(C)nnc2SCC(=O)Nc2ccc(C)cc2Cl)c(C)c1 | 0.1 |  | 60
54 | Cc1ccc2c(C)ccc(-n3c(SCC(=O)Nc4ccc(S(N)(=O)=O)cc4Cl)nnc3C(F)(F)F)c2c1 | 6 | 35 | 
55 | Cc1nnc(SCC(=O)Nc2ccccc2Br)n1-c1ccc(Cl)c2ccccc12 | 0.8 | 200 | 130
56 | Cc1nnc(SCC(=O)Nc2ccc(S(N)(=O)=O)cc2Cl)n1-c1cccc2cccnc12 | 4 | 2400 | 
57 | Cc1ccc(NC(=O)CSc2nnc(C)n2-c2ccc(C)c3ccccc23)c(Cl)c1 | 1 | 100 | 16
58 | CSCc1nnc(SCC(=O)Nc2ccc(C)cc2Br)n1-c1ccc(C)cc1 |  |  | > 10000
59 | Cc1ccc(-n2c(CO)nnc2SCC(=O)Nc2ccc(C)cc2Br)cc1 |  |  | > 10000
60 | Cc1ccc(-n2c(C)nnc2SCC(=O)Nc2ccc(S(N)(=O)=O)cc2Cl)c2ccccc12 | 0.2 | 20 | 
61 | Cc1ccc(-n2c(C)nnc2SCC(=O)Nc2ccccc2Br)c2ccccc12 | 0.6 | 69 | 14
62 | Cc1ccc2ccc(C)c(-n3c(SCC(=O)Nc4ccc(S(N)(=O)=O)cc4Cl)nnc3C(F)(F)F)c2c1 | 3 | 26 | 
63 | Cc1ccc(-n2c(SCC(=O)Nc3ccc(C)cc3Br)nnc2C(F)(F)F)cc1 | 0.5 |  | 1100

Row | Structure (SMILES) | EC50 (HeLa [1]) [nM] | EC50 (HeLa [2]) [nM] | EC50 (HeLa [3]) [nM]
64 | Cc1ccc(-n2c(C)nnc2SCC(=O)Nc2ccc(C)cc2Br)cc1 | 0.4 |  | 100
65 | Cc1ccc(NC(=O)CSc2nnc(C)n2-c2ccccc2)c(Br)c1 | 100 | > 10000 | 1300
66 | Cc1ccc(NC(=O)CSc2nnc(C)n2-c2ccc(C(F)(F)F)cc2)c(Cl)c1 | 19 |  | 230
67 | COC(=O)c1ccc(NC(=O)CSc2nnc(C)n2-c2ccc(C)cc2)c(Cl)c1 | 0.4 |  | 120
68 | Cc1nnc(SCC(=O)Nc2ccc(S(N)(=O)=O)cc2Cl)n1-c1cc(Br)cc2cccnc12 | 0.8 | 190 | 
69 | CSc1ccccc1NC(=O)CSc1nnc(C)n1-c1ccc(C)cc1 | 0.6 |  | 120
70 | CNCc1nnc(SCC(=O)Nc2ccc(C)cc2Br)n1-c1ccc(C)cc1 |  |  | > 10000
71 | Cc1cc2cccc(C)c2c(-n2c(C)nnc2SCC(=O)Nc2ccccc2Br)c1C | 3 | 200 | 
72 | Cc1ccc2c(C)cccc2c1-n1c(C)nnc1SCC(=O)Nc1ccccc1Br | 0.3 | 330 | 
73 | Cc1cc(-n2c(C)nnc2SCC(=O)Nc2ccccc2Br)c2ccccc2c1C | 0.5 | 97 | 31
74 | CCc1nnc(SCC(=O)Nc2ccc(C)cc2Br)n1-c1ccc(C)cc1 | 0.1 |  | 2500
75 | Cc1ccc(-n2c(SCC(=O)Nc3ccc(C)cc3Br)nnc2C2CC2)cc1 |  |  | > 10000
76 | Cc1cc2c(C)cccc2c(-n2c(C)nnc2SCC(=O)Nc2ccccc2Br)c1C | 0.8 | 160 | 
77 | Cc1ccc(-n2c(C)nnc2SCC(=O)Nc2ccc(Cl)cc2)cc1 | 400 |  | > 10000
78 | Cc1ccc(-n2c(C)nnc2SCC(=O)Nc2ccccc2I)cc1 | 0.5 |  | 220
79 | Cc1cc2c(C)ccc(-n3c(C)nnc3SCC(=O)Nc3ccccc3Br)c2cc1C | 1 | 110 | 
80 | Cc1ccc(-n2c(C)nnc2SCC(=O)Nc2ccccc2Cl)cc1 | 0.7 |  | 150
81 | Cc1ccc(-n2c(SCC(=O)Nc3ccc(C)cc3Br)nnc2C(C)C)cc1 |  |  | > 10000
82 | Cc1ccc(-n2c(C)nnc2SCC(=O)Nc2ccc(C#N)cc2Cl)cc1 | 3 |  | 900
